# Results published in US6949679B1, “Polyamine transport inhibitors” (Universite Laval, priority 1998, dated 2005).
# Key:
# polyamine transporter [1] = experiment: Inhibition of [3H]putrescine uptake in ZR-75-1 cells; assay type: cell-based, human; conditions: for Mode of inhibition of [3H]putrescine uptake: Lineweaver-Burke, DESC up to 100 μM, MESC up to 200 μM; for Ki: ZR-75-1 cells
# Procedure: (§1) The rate of putrescine and spermidine transport was determined in ZR-75-1 cells incubated in serum-free RPMI 1640 medium as described (Lessard, M., Zhao, C., Singh, S. M. and Poulin, R. 1995. J. Biol. Chem. 270: 1685-1694), using [^3H]putrescine (30 Ci/mol) and [^3H]spermidine (20 Ci/mol), respectively as substrates for a 20 minute-assay period. Spermine uptake was similarly determined, using 1 μM [^14C]spermine (32 Ci/mol) as substrate. Uptake activity was expressed per amount of DNA as fluorometrically determined using 3,4-diaminobenzoic acid (Simard, J., Dauvois, S., Haagensen, D. E., Lėvesque, C., Mėrand, Y. and Labrie, F. 1990. Endocrinology, 126: 3223-3231). For the determination of spermidine uptake activity in CHO-K1 cells, 80% confluent cell monolayers were rinsed twice with PBS and incubated for 20 minutes at 37° C. in 400 μl of buffer A (20 mM Tris-HCl, pH 7.4; 0.42 mM CaCl2; 0.41 mM MgSO4; 103 mM NaCl; 5.7 mM KCl; 1.1 mM D-glucose) containing 5 μM [^3H]spermidine (20 Ci/mol). Cell cultures were then washed twice with 1 ml PBS containing 5.7 mM sym-norspermidine. Cells were then lysed with 200-μl aliquot of 1 N NaOH and incubated for 30 minutes at 60° C. After neutralization with 200 μl of 1 N HCl, radioactivity was determined from a 250-μl of the cell lysate by scintillation counting. Uptake activity was expressed per amount of total cellular protein as determined by the method of Bradford (Bradford, M. M. 1976. Anal. Biochem. 72: 248-254). Non-specific binding of radioactive substrate was similarly determined in parallel for both cell lines after a 15 second-incubation with 400 μl of ice-cold uptake solution.
# (§2) Kinetic analysis of polyamine transport was performed by determining uptake activity in the presence of a 3 μM [^3H]putrescine or 1 μM [^3H]spermidine plus increasing concentrations of nonradioactive substrate. K[…] Ki and Vmax values were then estimated by Lineweaver-Burke analysis. For competitive inhibitors, Ki values were also estimated by measuring uptake activity in the presence of logarithmically increasing concentrations of antagonist, and using the Cheng-Prusoff equation (Cheng, Y.-C. and Prusoff, W. H. 1973. Biochem. Pharmacol. 22: 3099-3108) by iterative curve fitting for a sigmoidal curve. For mixed competitive/noncompetitive inhibition, two methods were used to calculate kinetic constants. First, the equation [drawing 2] where v, s, and i are the transport velocity, substrate concentration and inhibitor concentration respectively, was used to calculate the inhibition constants for inhibitor/carrier complex formation (Ki) and carrier/inhibitor/substrate complex formation (Ki′) (Dixon, M. and Webb, E. C. 1976. Enzymes, 3rd Ed., Academic Press, San Diego, Calif.). Alternatively, the value of Ki for a mixed competitor/non-competitor was estimated from the intersect of equations v^−1 vs i at two different substrate concentrations (Dixon, M. and Webb, E. C. 1976. Enzymes, 3rd Ed., Academic Press, San Diego, Calif.). Intracellular Accumulation
# (§3) In order to evaluate the effectiveness of dimeric triamines as polyamine transport inhibitors, we synthesized N,N′-bis(3-aminopropyl),N,N′-bis(4-aminobutyl)cystamine or BABAC (structure 1, FIG. 25; FIG. 31), and its thiol form N-(3-aminopropyl),N-(4-aminobutyl)cysteamine or AAC (FIG. 31) according to Scheme 4 described above (FIG. 30), using spermidine as a precursor polyamine. The ability of BABAC and AAC to inhibit the intracellular uptake of radio-labeled putrescine and spermidine in the ZR-75-1 human breast cancer cell line was then determined according to standard published procedures (Lessard, et al. and Poulin, et al.) Briefly, ZR-75-1 cells were grown for four days in twenty-four well plates in RPMI 1640 medium supplemented with 10% fetal bovine serum.
# polyamine transporter [2] = experiment: Inhibition of [14C]spermine uptake in ZR-75-1 cells; assay type: cell-based, human
# Procedure: as §1, with “Spermine uptake was similarly determined, using 1 μM [^14C]spermine (32 Ci/mol) as substrate.” left out
# as §2, §3
# [3] = this work, DEASC: Ki of mixed competitive/non-competitive model, read-out: Ki, putrescine transport
# [4] = this work, read-out: Km or Ki, spermine transport
SMILES,Mode of inhibition of [3H]putrescine uptake (polyamine transporter [1]),Ki (polyamine transporter [1]; [3]),"Ki for [14C]spermine transport, fold higher than that of DESC (polyamine transporter [2]; FIG. 2)",Ki (polyamine transporter [2]; [4]),"Ki (polyamine transporter [1]; FIG. 32, 20 μM and 3 μM substrate, respectively, read-out: Apparent Ki, putrescine uptake)","Ki (polyamine transporter [2]; FIG. 32, read-out: Apparent Ki, spermine uptake)"
"NCCCNCCCC(NCCCN)C(=O)NCCS (stereo not drawn) [MESC, N-(2-mercaptoethyl)spermine-5-carboxamide]",pure competitive inhibitors,22 ± 3 µM,~16 fold,80 ± 31 µM,–,–
"NCCCNCCCC(NCCCN)C(=O)NCCSSCCNC(=O)C(CCCNCCCN)NCCCN (stereo not drawn) [DESC, 2,2′-dithiobis(N-ethyl-spermine-5-carboxamide)]",pure competitive inhibitors,1.6 ± 0.5 µM,–,5 ± 0.7 µM,0.54 µM,7.5 µM
